Values of other authors in patent US20160120807A1, “CELL-SURFACE DECORATION WITH ACTIVE AGENTS” (University of Louisville Research Foundation, Inc., priority 2005, published 2016).

How the values were obtained:
[1] = target: T1, NPY Y1 receptor (Homo sapiens, UniProt P25929)
T1 construct: host or cells: smooth muscle cells; vessel after angioplasty
T1 sequence (P25929 1-384): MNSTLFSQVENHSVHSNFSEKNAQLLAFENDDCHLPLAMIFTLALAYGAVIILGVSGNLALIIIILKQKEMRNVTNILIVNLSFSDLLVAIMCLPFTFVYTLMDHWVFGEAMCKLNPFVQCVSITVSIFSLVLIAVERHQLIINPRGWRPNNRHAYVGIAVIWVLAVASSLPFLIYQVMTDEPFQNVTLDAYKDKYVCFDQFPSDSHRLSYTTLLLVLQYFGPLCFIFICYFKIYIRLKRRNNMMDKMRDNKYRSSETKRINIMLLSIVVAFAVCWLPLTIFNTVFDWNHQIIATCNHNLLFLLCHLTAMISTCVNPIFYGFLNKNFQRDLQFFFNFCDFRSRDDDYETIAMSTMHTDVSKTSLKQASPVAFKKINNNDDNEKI

[2] = target: T1, NPY Y1 receptor; remark: listed apart in the source

Structure (SMILES): N=C(N)NCCC[C@@H](NC(=O)C(c1ccccc1)c1ccccc1)C(=O)NCc1ccc(O)cc1 [BIBP3226, (R)—N2-(diphenylacetyl)-N-[(4-hydroxy-phenyl)methyl]-D-arginine-amide]
- mitogen-activated protein kinase (MAPK) activity in smooth muscle cells [1]: reduces mitogen-activated protein kinase (MAPK) activity
- neointimal hyperplasia after angioplasty [2]: reduces neointimal hyperplasia
